Results taken from patent US20260265256A1 (IMPACT THERAPEUTICS (SHANGHAI), INC., priority 2023, published 2026).

Experiments:
MDA-MB-436 cells = assay: Growth inhibition assay against BRCA mutant human breast cancer MDA-MB-436 cell line (CCK-8, 7 days); format: cell-based; conditions: 168 h, MDA-MB-436, 7 days, read-out: IC50 (nM), proliferation of human breast cancer cells MDA-MB-436
Experimental: The cells were cultured in complete medium (DMEM medium+10% FBS+Insulin+glutathione). When the confluence reached about 80%, cells were digested and gently dispensed from the bottom of the dish with a 1 mL pipette. Cell suspension was collected and centrifuged at 500 rpm for 3 min. The supernatant was discarded, and the cell pellet were re-suspended in complete medium. The cells were seeded into a culture dish at an appropriate proportion, and then cultured in a 5% CO2 incubator at 37° C. The assay was carried out when the cells were in optimum condition and the confluence was reached 80%. Cells in the logarithmic growth phase were taken to centrifugate, and the culture supernatant was removed. The cells were resuspended in refresh complete medium and counted. The resuspended cells were seeded at 3000/well in a 96-well plate and incubated at 37° C., 5% CO2 incubator overnight. […] The solution was mixed by oscillation. 0.10% DMSO was used as the control.
The next day, the 96-well plate inoculated with cells was taken out from the incubator, and the culture supernatant was removed. Then fresh medium of 195 uL/well and 5 μL/well of 40× test compound solution as mentioned above were added into the 96 well plate, respectively. Finally, the plate was incubated for 7 days in a 37° C. 5% CO2 incubator. The medium containing compound was changed on the fourth day. After 7 days, 20 μL of CCK-8 was added to each well and shaken gently, then was cultured for 4 hours. The plate was shaken for 5 min after incubation, the absorbance values of 450 nm or 650 nm wavelengths were recorded respectively (OD=absorbance value of 450 nm−absorbance value of 650 nm) by using the multifunction readout instrument.
Data were analyzed by software GraphPad Prism 6.0. The inhibitory activity of compounds on cell proliferation was plotted using cell survival rate against the compound concentration as coordinates. Cell survival rate %=(ODcompound−ODbackground)/(ODDMSO−ODbackground)×100.
Table 2 summarizes the inhibitory effect data (IC50) of the compounds on the proliferation of human breast cancer cells MDA-MB-436.

PDE3A = target: T1, PDE3A (Homo sapiens, UniProt Q14432); assay: PDE3A fluorescence polarization (FP) assay; format: biochemical; conditions: 2 nM PDE3A, 0.2 μM FAM-cAMP, read-out: IC50 (μM), PDE3A enzyme activity
T1 construct: purchased Sino Biological 11908-H20B1
T1 sequence (Q14432 669-1141 limits assumed): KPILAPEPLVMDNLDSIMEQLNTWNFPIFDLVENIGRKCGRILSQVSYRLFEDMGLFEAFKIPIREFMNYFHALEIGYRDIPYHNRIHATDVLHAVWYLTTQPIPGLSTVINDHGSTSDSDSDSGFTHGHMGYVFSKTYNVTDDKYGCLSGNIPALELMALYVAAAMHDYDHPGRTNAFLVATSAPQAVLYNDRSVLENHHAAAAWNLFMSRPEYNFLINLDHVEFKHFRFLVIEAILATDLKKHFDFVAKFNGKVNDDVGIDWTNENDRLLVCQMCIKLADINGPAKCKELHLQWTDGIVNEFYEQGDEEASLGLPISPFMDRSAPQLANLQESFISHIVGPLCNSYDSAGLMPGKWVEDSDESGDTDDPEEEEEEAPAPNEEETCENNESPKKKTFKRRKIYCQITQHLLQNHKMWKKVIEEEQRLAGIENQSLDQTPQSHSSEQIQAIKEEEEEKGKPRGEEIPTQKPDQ
Experimental: A PDE3A fluorescence polarization (FP) assay in a multi-step format was performed using black, round bottom 384-well plates (Corning, 4514). The testing compounds were serially diluted from stock solutions to 11 concentrations with a 3-fold dilution factor using DMSO. Fifty nL of compound dilutions was mixed with 5 μL of reaction buffer (10 mM Tris-HCl, pH 7.2, 10 mM MgCl2, 0.05% NaN3, 0.1% phosphate-free BSA) containing 0.2 μM FAM-cAMP (BPS, 60200) and 2 nM PDE3A (Sino Biological, 11908-H20B1) enzyme, and incubated for 60 min at 25° C. Afterwards, 15 μL binding agent mixture (Molecular Devices, R8124) was added to each well and the plate was incubated for 60 min at 25° C. The plate was loaded to a BMG PHERAstar FSX to read Fluorescence Polarization (FP) values at a setting of: Ex: 485 nm and Em: 520 nm. Emission light intensity with polarizers parallel (Em|) and emission light intensity with polarizers perpendicular (Em⊥) were recorded. The Polarization (mP) values were calculated using the following formula: mP=(SignalEm|−SignalEm⊥)/(SignalEm|+SignalEm⊥).
Data analysis: • 1) The inhibition % of a compound dose is calculated as:
[formula] • wherein mPMin and mPMax refer to the polarization readings in the condition of substrate only and substrate+enzyme, respectively. • 2) The IC50 values were calculated from non-linear curve fitting using following regression equation using a commercial curve fitting software GraphPad Prism 9.2.0.
wherein X refers to Log of compound concentration and Y refers to % Inhibition.
Table 3 summarize the inhibitory effects of compounds on PDE3A enzyme activity (IC50).

[1] = target: recombinant poly(ADP-ribose) polymerase 2 (PARP2) (Homo sapiens, UniProt Q9UGN5); assay: PARP2 chemiluminescent assay; format: biochemical; conditions: PARP2 enzyme activity, chemiluminescence, 40 ng enzyme/well
recombinant poly(ADP-ribose) polymerase 2 (PARP2), sequence (Q9UGN5 whole entry): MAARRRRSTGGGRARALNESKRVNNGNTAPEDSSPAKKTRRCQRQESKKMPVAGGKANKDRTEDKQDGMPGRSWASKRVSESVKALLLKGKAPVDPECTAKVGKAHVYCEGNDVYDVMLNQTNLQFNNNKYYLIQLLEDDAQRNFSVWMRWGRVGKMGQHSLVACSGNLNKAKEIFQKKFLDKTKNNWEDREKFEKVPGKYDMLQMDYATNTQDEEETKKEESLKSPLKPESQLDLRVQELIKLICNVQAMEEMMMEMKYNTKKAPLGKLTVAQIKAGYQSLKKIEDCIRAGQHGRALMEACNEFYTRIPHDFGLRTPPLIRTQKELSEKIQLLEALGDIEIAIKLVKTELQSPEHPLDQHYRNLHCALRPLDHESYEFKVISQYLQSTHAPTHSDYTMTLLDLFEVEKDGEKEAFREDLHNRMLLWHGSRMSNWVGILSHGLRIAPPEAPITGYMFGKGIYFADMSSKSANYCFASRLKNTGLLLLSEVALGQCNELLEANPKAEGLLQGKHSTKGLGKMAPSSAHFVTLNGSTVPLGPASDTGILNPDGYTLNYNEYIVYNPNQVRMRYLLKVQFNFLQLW
Experimental: The solution of recombinant poly(ADP-ribose) polymerase 1 and 2 (PARP1 and PARP2) (40 ng enzyme/well) and the compounds to be tested were mixed, respectively. The solutions were added to a 96-well plate coated with histone mixture, incubated at room temperature for 1 h, then 50 μL 0.3 ng/mL Streptavidin-HRP was added to each well. The plates were incubated for 30 minutes at room temperature. Finally, the plates were treated with streptavidin-HRP followed by addition of the ELISA ECL substrate to produce chemiluminescence that can be measured using a chemiluminescence reader. Inhibition of the tested compound to PARP1/2 enzyme activity was calculated according to the following formula. [formula] IC50 value is obtained by fitting the s-shaped dose response curve equation by using XL Fit software.

Question: Which results are given for `CNC(=O)c1ccc(-n2cc3c(n2)CN(Cc2ccc4c([nH]c(=O)c5c(C)cnn54)c2F)C3)cn1` [Example 1-1, 5-(5-((6-fluoro-3-methyl-4-oxo-4,5-dihydropyrazolo[1,5-a]quinoxalin-7-yl)methyl)-5,6-dihydropyrrolo[3,4-c]pyrazol-2(4H)-yl)-N-methylpicolinamide]?
Answer: IC50 (MDA-MB-436 cells): 2.13 nM; IC50 (PDE3A): > 30 µM

Question: How did the IC50 (MDA-MB-436 cells) turn out when `Cc1cnn2c1c(=O)[nH]c1c(F)c(CN3Cc4cn(-c5ccc(C(=O)NC6CC6)nc5)nc4C3)ccc12` [Example 8, 5-(5-((6-fluoro-3-methyl-4-oxo-4,5-dihydropyrazolo[1,5-a]quinoxalin-7-yl)methyl)-5,6-dihydropyrrolo[3,4-c]pyrazol-2(4H)-yl)-N-cyclopropylpicolinamide] was run?
Answer: 4.11 nM

Question: And the IC50 (PDE3A)?
Answer: > 30 µM

Question: Which IC50 (MDA-MB-436 cells) does the source give for `CNC(=O)c1ccc(-n2cc3c(n2)CCN(Cc2ccc4c([nH]c(=O)c5c(C)cnn54)c2F)C3)c(C)n1` [Example 11, 5-(5-((6-fluoro-3-methyl-4-oxo-4,5-dihydropyrazolo[1,5-a]quinoxalin-7-yl)methyl)-4,5,6,7-tetrahydro-2H-pyrazolo[4,3-c]pyridin-2-yl)-N,6-dimethylpicolinamide] here?
Answer: > 100 nM

Question: And the IC50 (PDE3A)?
Answer: > 30 µM

Question: Which IC50 (MDA-MB-436 cells) does the source give for `CNC(=O)c1ccc(-n2cc3c(n2)CCN(Cc2ccc4c([nH]c(=O)c5c(C)cnn54)c2F)C3)c(F)n1` [Example 12, 5-(5-((6-fluoro-3-methyl-4-oxo-4,5-dihydropyrazolo[1,5-a]quinoxalin-7-yl)methyl)-4,5,6,7-tetrahydro-2H-pyrazolo[4,3-c]pyridin-2-yl)-6-fluoro-N-methylpicolinamide] here?
Answer: > 100 nM

Question: What about the IC50 (PDE3A) of the same molecule?
Answer: > 30 µM

Question: Which IC50 (MDA-MB-436 cells) does the source give for `CNC(=O)c1ccc(-n2cc3c(n2)CN(Cc2ccc4c([nH]c(=O)c5c(F)cnn54)c2F)C3)c(C)n1` [Example 14, 5-(5-((3,6-difluoro-4-oxo-4,5-dihydropyrazolo[1,5-a]quinoxalin-7-yl)methyl)-5,6-dihydropyrrolo[3,4-c]pyrazol-2(4H)-yl)-N,6-dimethylpicolinamide] here?
Answer: 5.06 nM

Question: And the IC50 (PDE3A)?
Answer: > 30 µM

Question: Which results are given for `CCNC(=O)c1ccc(-n2cc3c(n2)CN(Cc2ccc4c([nH]c(=O)c5c(F)cnn54)c2F)C3)cn1` [Example 18, 5-(5-((3,6-difluoro-4-oxo-4,5-dihydropyrazolo[1,5-a]quinoxalin-7-yl)methyl)-5,6-dihydropyrrolo[3,4-c]pyrazol-2(4H)-yl)-N-ethylpicolinamide]?
Answer: IC50 (MDA-MB-436 cells): 0.59 nM; IC50 (PDE3A): > 30 µM

Question: Which results are given for `CNC(=O)c1ccc(-n2cc3c(n2)CN(Cc2ccc4c([nH]c(=O)c5c(C(F)(F)F)cnn54)c2F)C3)c(F)n1` [Example 26, 5-(5-((6-fluoro-4-oxo-3-(trifluoromethyl)-4,5-dihydropyrazolo[1,5-a]quinoxalin-7-yl)methyl)-5,6-dihydropyrrolo[3,4-c]pyrazol-2(4H)-yl)-6-fluoro-N-methylpicolinamide]?
Answer: IC50 [1]: 64 nM; IC50 (MDA-MB-436 cells): 13 nM

Question: `CNC(=O)c1ccc(-n2cc3c(n2)CN(Cc2ccc4c([nH]c(=O)c5cc(F)nn54)c2F)C3)cn1` [Example 27, 5-(5-((2,6-difluoro-4-oxo-4,5-dihydropyrazolo[1,5-a]quinoxalin-7-yl)methyl)-5,6-dihydropyrrolo[3,4-c]pyrazol-2(4H)-yl)-N-methylpicolinamide] was tested. Which IC50 (MDA-MB-436 cells) did it give?
Answer: 1.44 nM

Question: And the IC50 (PDE3A)?
Answer: > 30 µM

Question: Which results are given for `CNC(=O)c1ccc(-c2nc3c([nH]2)CN(Cc2ccc4c([nH]c(=O)c5c(C)cnn54)c2F)C3)cn1` [Example 34, 5-(5-((6-fluoro-3-methyl-4-oxo-4,5-dihydropyrazolo[1,5-a]quinoxalin-7-yl)methyl)-1,4,5,6-tetrahydropyrrolo[3,4-d]imidazol-2-yl)-N-methylpicolinamide]?
Answer: IC50 [1]: 40 nM; IC50 (MDA-MB-436 cells): 3.33 nM

Question: What does the source list for `CNC(=O)c1ccc(-n2cc3c(c2)CN(Cc2ccc4c([nH]c(=O)c5c(C)cnn54)c2F)C3)cn1` [Example 39, 5-(5-((6-fluoro-3-methyl-4-oxo-4,5-dihydropyrazolo[1,5-a]quinoxalin-7-yl)methyl)-5,6-dihydropyrrolo[3,4-c]pyrrol-2(4H)-yl)-N-methylpicolinamide]?
Answer: IC50 (MDA-MB-436 cells): 1.82 nM; IC50 (PDE3A): > 30 µM

Question: How did the IC50 [1] turn out when `CNC(=O)c1ccc(-c2nc3c(o2)CN(Cc2ccc4c([nH]c(=O)c5c(F)cnn54)c2F)C3)cn1` [Example 41, 5-(5-((3,6-difluoro-4-oxo-4,5-dihydropyrazolo[1,5-a]quinoxalin-7-yl)methyl)-5,6-dihydro-4H-pyrrolo[3,4-d]oxazol-2-yl)-N-methylpicolinamide] was run?
Answer: 61.1 nM

Question: And the IC50 (MDA-MB-436 cells)?
Answer: 1.6 nM

Question: What does the source list for `CNC(=O)c1ccc(-c2nc3c([nH]2)CN(Cc2ccc4c([nH]c(=O)c5c(F)cnn54)c2F)C3)cn1` [Example 43, 5-(5-((3,6-difluoro-4-oxo-4,5-dihydropyrazolo[1,5-a]quinoxalin-7-yl)methyl)-1,4,5,6-tetrahydropyrrolo[3,4-d]imidazol-2-yl)-N-methylpicolinamide]?
Answer: IC50 [1]: 5.18 nM; IC50 (MDA-MB-436 cells): 2.84 nM

Question: Which results are given for `CCNC(=O)c1ccc(-n2cc3c(n2)CN(Cc2ccc4c([nH]c(=O)n5cc(C)nc45)c2F)C3)cn1` [Example 50, N-ethyl-5-(5-((7-fluoro-2-methyl-5-oxo-5,6-dihydroimidazo[1,2-c]quinazolin-8-yl)methyl)-5,6-dihydropyrrolo[3,4-c]pyrazol-2(4H)-yl)picolinamide]?
Answer: IC50 [1]: 180 nM; IC50 (MDA-MB-436 cells): 1.01 nM

Question: `CCNC(=O)c1ccc(-n2cc3c(n2)CN(Cc2ccc4c([nH]c(=O)c5occc54)c2F)C3)cn1` [Example 53, N-ethyl-5-(5-((6-fluoro-4-oxo-4,5-dihydrofuro[2,3-c]quinolin-7-yl)methyl)-5,6-dihydropyrrolo[3,4-c]pyrazol-2(4H)-yl)picolinamide] was tested. Which IC50 [1] did it give?
Answer: 157 nM

Question: What about the IC50 (MDA-MB-436 cells) of the same molecule?
Answer: 1.21 nM

Question: Which results are given for `CNC(=O)c1ccc(-n2cc3c(n2)CN(Cc2ccc4c([nH]c(=O)c5cc(F)nn54)c2F)C3)c(F)n1` [Example 56, 5-(5-((2,6-difluoro-4-oxo-4,5-dihydropyrazolo[1,5-a]quinoxalin-7-yl)methyl)-5,6-dihydropyrrolo[3,4-c]pyrazol-2(4H)-yl)-6-fluoro-N-methylpicolinamide]?
Answer: IC50 [1]: 2760 nM; IC50 (MDA-MB-436 cells): 4.66 nM

Question: How did the IC50 [1] turn out when `CNC(=O)c1ccc(-n2cc3c(c2)CN(Cc2ccc4c([nH]c(=O)c5c(F)cnn54)c2F)C3)c(F)n1` [Example 62, 5-(5-((3,6-difluoro-4-oxo-4,5-dihydropyrazolo[1,5-a]quinoxalin-7-yl)methyl)-5,6-dihydropyrrolo[3,4-c]pyrrol-2(4H)-yl)-6-fluoro-N-methylpicolinamide] was run?
Answer: 278 nM

Question: What about the IC50 (MDA-MB-436 cells) of the same molecule?
Answer: 0.44 nM

Question: `CNC(=O)c1ccc(-n2cc3c(c2)CN(Cc2ccc4c([nH]c(=O)c5c(C)cnn54)c2F)C3)c(F)n1` [Example 63, 6-fluoro-5-(5-((6-fluoro-3-methyl-4-oxo-4,5-dihydropyrazolo[1,5-a]quinoxalin-7-yl)methyl)-5,6-dihydropyrrolo[3,4-c]pyrrol-2(4H)-yl)-N-methylpicolinamide] was tested. Which IC50 [1] did it give?
Answer: > 10000 nM

Question: And the IC50 (MDA-MB-436 cells)?
Answer: 0.85 nM
